Results reported in the supplement of paper PMC10307832.

Columns and labels:
Test in all cases: relative viability (nuclei count vs DMSO), 5 days (fraction); higher = more cells survive
A-427 = test system: A-427
Summary of the method: (§1)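 Lung cancer cell lines were pin-tool dosed in 1536-well plates on the day after seeding, with either a lone drug or a fixed anchor-drug dose plus five library-drug doses (not always all listed) in √10 steps. Nuclei were counted on 4× images after 5 days. Relative viability is the ratio of treated-well to vehicle-well nuclei counts, with each value a median of duplicate plates.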

HCC-15 = test system: HCC-15
Summary of the method: as §1

HCC-78 = test system: HCC-78
Summary of the method: as §1

HOP-62 = test system: HOP-62
Summary of the method: as §1

LC-2-ad = test system: LC-2-ad
Summary of the method: as §1

LXF-289 = test system: LXF-289
Summary of the method: as §1

NCI-H1734 = test system: NCI-H1734
Summary of the method: as §1

NCI-H1755 = test system: NCI-H1755
Summary of the method: as §1

NCI-H1915 = test system: NCI-H1915
Summary of the method: as §1

NCI-H1975 = test system: NCI-H1975
Summary of the method: as §1

NCI-H2126 = test system: NCI-H2126
Summary of the method: as §1

NCI-H2228 = test system: NCI-H2228
Summary of the method: as §1

NCI-H2342 = test system: NCI-H2342
Summary of the method: as §1

NCI-H2347 = test system: NCI-H2347
Summary of the method: as §1

NCI-H358 = test system: NCI-H358
Summary of the method: as §1

NCI-H647 = test system: NCI-H647
Summary of the method: as §1

PC-3 [JPC-3] = test system: PC-3 [JPC-3]
Summary of the method: as §1

RERF-LC-KJ = test system: RERF-LC-KJ
Summary of the method: as §1

SK-LU-1 = test system: SK-LU-1
Summary of the method: as §1

SW 1573 = test system: SW 1573
Summary of the method: as §1

Structure (SMILES): CC(=O)O[C@@]12CO[C@@H]1C[C@H](O)[C@@]1(C)C(=O)[C@H](O)C3=C(C)[C@@H](OC(=O)[C@H](O)[C@@H](NC(=O)OC(C)(C)C)c4ccccc4)C[C@@](O)([C@@H](OC(=O)c4ccccc4)[C@H]21)C3(C)C [Docetaxel] + COc1cc2c(Oc3ccc(NC(=O)C4(C(=O)Nc5ccc(F)cc5)CC4)cc3F)ccnc2cc1OCCCN1CCOCC1 [Foretinib] (partner 0.25 µM)
- relative viability (A-427; first compound 0.0002 µM): 1
- relative viability (A-427; first compound 0.000632 µM): 1.04
- relative viability (A-427; first compound 0.002 µM): 0.686
- relative viability (A-427; first compound 0.006325 µM): 0.261
- relative viability (A-427; first compound 0.02 µM): 0.176
- relative viability (HCC-15; first compound 0.0002 µM): 0.906
- relative viability (HCC-15; first compound 0.000632 µM): 0.472
- relative viability (HCC-15; first compound 0.002 µM): 0.233
- relative viability (HCC-15; first compound 0.006325 µM): 0.27
- relative viability (HCC-15; first compound 0.02 µM): 0.162
- relative viability (HCC-78; first compound 0.0002 µM): 0.634
- relative viability (HCC-78; first compound 0.000632 µM): 0.493
- relative viability (HCC-78; first compound 0.002 µM): 0.461
- relative viability (HCC-78; first compound 0.006325 µM): 0.42
- relative viability (HCC-78; first compound 0.02 µM): 0.34
- relative viability (HOP-62; first compound 0.0002 µM): 1.07
- relative viability (HOP-62; first compound 0.000632 µM): 0.732
- relative viability (HOP-62; first compound 0.002 µM): 0.427
- relative viability (HOP-62; first compound 0.006325 µM): 0.295
- relative viability (LC-2-ad; first compound 0.0002 µM): 0.882
- relative viability (LC-2-ad; first compound 0.000632 µM): 0.494
- relative viability (LC-2-ad; first compound 0.002 µM): 0.441
- relative viability (LC-2-ad; first compound 0.006325 µM): 0.395
- relative viability (LXF-289; first compound 0.0002 µM): 0.977
- relative viability (LXF-289; first compound 0.000632 µM): 0.924
- relative viability (LXF-289; first compound 0.002 µM): 0.207
- relative viability (LXF-289; first compound 0.006325 µM): 0.147
- relative viability (LXF-289; first compound 0.02 µM): 0.0982
- relative viability (NCI-H1734; first compound 0.0002 µM): 0.776
- relative viability (NCI-H1734; first compound 0.000632 µM): 0.743
- relative viability (NCI-H1734; first compound 0.002 µM): 0.404
- relative viability (NCI-H1734; first compound 0.006325 µM): 0.336
- relative viability (NCI-H1734; first compound 0.02 µM): 0.227
- relative viability (NCI-H1755; first compound 0.0002 µM): 0.901
- relative viability (NCI-H1755; first compound 0.000632 µM): 0.88
- relative viability (NCI-H1755; first compound 0.002 µM): 0.564
- relative viability (NCI-H1755; first compound 0.006325 µM): 0.351
- relative viability (NCI-H1755; first compound 0.02 µM): 0.373
- relative viability (NCI-H1915; first compound 0.0002 µM): 1.15
- relative viability (NCI-H1915; first compound 0.000632 µM): 1.05
- relative viability (NCI-H1915; first compound 0.002 µM): 0.736
- relative viability (NCI-H1915; first compound 0.006325 µM): 0.262
- relative viability (NCI-H1915; first compound 0.02 µM): 0.179
- relative viability (NCI-H1975; first compound 0.0002 µM): 0.907
- relative viability (NCI-H1975; first compound 0.000632 µM): 0.586
- relative viability (NCI-H1975; first compound 0.002 µM): 0.353
- relative viability (NCI-H1975; first compound 0.02 µM): 0.105
- relative viability (NCI-H2126; first compound 0.0002 µM): 1.08
- relative viability (NCI-H2126; first compound 0.000632 µM): 1.14
- relative viability (NCI-H2126; first compound 0.002 µM): 0.588
- relative viability (NCI-H2126; first compound 0.006325 µM): 0.456
- relative viability (NCI-H2126; first compound 0.02 µM): 0.228
- relative viability (NCI-H2228; first compound 0.0002 µM): 0.785
- relative viability (NCI-H2228; first compound 0.000632 µM): 0.222
- relative viability (NCI-H2228; first compound 0.002 µM): 0.185
- relative viability (NCI-H2228; first compound 0.006325 µM): 0.145
- relative viability (NCI-H2228; first compound 0.02 µM): 0.137
- relative viability (NCI-H2342; first compound 0.0002 µM): 1.17
- relative viability (NCI-H2342; first compound 0.000632 µM): 0.948
- relative viability (NCI-H2342; first compound 0.002 µM): 0.638
- relative viability (NCI-H2342; first compound 0.006325 µM): 0.661
- relative viability (NCI-H2342; first compound 0.02 µM): 0.502
- relative viability (NCI-H2347; first compound 0.0002 µM): 0.806
- relative viability (NCI-H2347; first compound 0.000632 µM): 0.815
- relative viability (NCI-H2347; first compound 0.002 µM): 0.541
- relative viability (NCI-H2347; first compound 0.006325 µM): 0.31
- relative viability (NCI-H2347; first compound 0.02 µM): 0.368
- relative viability (NCI-H358; first compound 0.0002 µM): 0.66
- relative viability (NCI-H358; first compound 0.000632 µM): 0.217
- relative viability (NCI-H358; first compound 0.006325 µM): 0.122
- relative viability (NCI-H358; first compound 0.02 µM): 0.0708
- relative viability (NCI-H647; first compound 0.0002 µM): 1.25
- relative viability (NCI-H647; first compound 0.000632 µM): 1.06
- relative viability (NCI-H647; first compound 0.002 µM): 0.179
- relative viability (NCI-H647; first compound 0.006325 µM): 0.182
- relative viability (NCI-H647; first compound 0.02 µM): 0.111
- relative viability (PC-3 [JPC-3]; first compound 0.0002 µM): 0.962
- relative viability (PC-3 [JPC-3]; first compound 0.000632 µM): 0.945
- relative viability (PC-3 [JPC-3]; first compound 0.002 µM): 0.544
- relative viability (PC-3 [JPC-3]; first compound 0.006325 µM): 0.179
- relative viability (PC-3 [JPC-3]; first compound 0.02 µM): 0.149
- relative viability (RERF-LC-KJ; first compound 0.0002 µM): 0.882
- relative viability (RERF-LC-KJ; first compound 0.000632 µM): 0.898
- relative viability (RERF-LC-KJ; first compound 0.002 µM): 0.402
- relative viability (RERF-LC-KJ; first compound 0.006325 µM): 0.2
- relative viability (RERF-LC-KJ; first compound 0.02 µM): 0.203
- relative viability (SK-LU-1; first compound 0.0002 µM): 0.737
- relative viability (SK-LU-1; first compound 0.000632 µM): 0.459
- relative viability (SK-LU-1; first compound 0.002 µM): 0.451
- relative viability (SK-LU-1; first compound 0.006325 µM): 0.275
- relative viability (SK-LU-1; first compound 0.02 µM): 0.196
- relative viability (SW 1573; first compound 0.0002 µM): 0.719
- relative viability (SW 1573; first compound 0.000632 µM): 1.06
- relative viability (SW 1573; first compound 0.002 µM): 0.342
- relative viability (SW 1573; first compound 0.006325 µM): 0.193
- relative viability (SW 1573; first compound 0.02 µM): 0.2
